Test results as given in patent publication US8278312B2, “Imidazo 1,2-a pyrimidine derivatives for the treatment of diseases such as diabetes” (Merck Patent Gesellschaft mit Beschränkter Haftung, priority 2007, dated 2012).

What was measured:
SGLT1 = biological target: T1, SGLT1 (Homo sapiens, UniProt P13866); experiment: 14C-AMG uptake in BHK cells transfected with SGLT1 (96-well cell-based assay); settings: 50 μM AMG, 37° C., 90 min
T1 construct: expressed in transfected cells
T1 sequence (P13866 1-664): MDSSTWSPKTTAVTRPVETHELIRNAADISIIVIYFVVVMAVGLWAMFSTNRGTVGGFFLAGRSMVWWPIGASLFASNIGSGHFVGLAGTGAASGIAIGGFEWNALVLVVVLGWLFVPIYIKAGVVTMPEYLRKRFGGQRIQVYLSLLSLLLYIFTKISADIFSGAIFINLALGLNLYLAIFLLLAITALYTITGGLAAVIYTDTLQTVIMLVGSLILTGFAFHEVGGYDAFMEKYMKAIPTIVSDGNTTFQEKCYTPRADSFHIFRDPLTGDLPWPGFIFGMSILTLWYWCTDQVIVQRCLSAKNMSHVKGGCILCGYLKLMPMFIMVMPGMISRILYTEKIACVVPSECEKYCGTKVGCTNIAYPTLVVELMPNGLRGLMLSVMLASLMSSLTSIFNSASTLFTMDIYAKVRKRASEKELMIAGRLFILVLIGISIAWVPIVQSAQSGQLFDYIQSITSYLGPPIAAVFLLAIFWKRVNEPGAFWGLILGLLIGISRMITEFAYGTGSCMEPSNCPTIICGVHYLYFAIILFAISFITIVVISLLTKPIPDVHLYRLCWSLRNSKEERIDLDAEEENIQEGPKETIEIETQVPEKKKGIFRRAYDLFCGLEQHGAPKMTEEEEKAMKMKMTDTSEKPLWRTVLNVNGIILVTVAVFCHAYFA
Excerpt: (§1) The compounds can be tested for their SGLT inhibition properties by means of BHK cells expressing SGLT1 and SGLT2. The production of the cells and the testing can be carried out as described below.
To construct the SGLT1 expression vector (KL225), the SLC5A1 gene (homologous to NM_000343) was amplified from a cDNA library using standard PCR technology and cloned over NheI/XhoI sites into the pcDNA3.1 expression vector (Invitrogen) containing neomycin as a selection marker. In this vector, transcription uses the enhancer/promoter of human cytomegalovirus.
(§2) The final vector KL225 together with an additional vector containing a dihydrofolate reductase gene as a selection marker was introduced into cells. Transfection into BHK21 cells (ATCC CCL-10), cultivated in DMEM medium (GIBCO/BRL), supplemented with 10% foetal calf serum (FCS) and 20 mM glutamine, was carried out using calcium phosphate transfections according to Graham, F. L. and van der Ebb, A. J. (1973), Virology 52: 456 with 5-20 μg of uncut plasmids for 10^7 cells. Stable transfectants were selected in medium containing 1 mg/ml of G418 (GIBCO/BRL) and 20-5000 nM methotrexate as final concentration, where only cells which expressed the neomycin gene and overexpressed the dhfr gene were able to grow. After growth for 2-3 weeks, the cells were cloned (0.5 cells/well) and the clones were investigated for SGLT expression in radioactivity uptake tests. […]
(§3) A 96-well cell-based assay was developed and adapted to HTS requirements:
(§4) BHK cells (transfected with SGLT1 or SGLT2) were seeded into 96-well microtitre plates (Cultureplates, Perkin Elmer). After at least 24 h, medium was removed, and the cell layer was washed with assay buffer (140 mM NaCl, 2 mM KCl, 1 mM CaCl2, 1 mM MgCl2, 10 mM HEPES, 5 mM Tris, adjusted to pH 7.4 using 1 M KOH). After addition of 40 μl of assay buffer, 50 μl of AMG (50 μM for SGLT1 and 2 mM for SGLT2) in the presence or absence of compounds, the cells were incubated in a total volume of 100 μl at 37° C. for 90 min. Supernatant was removed by suction and discarded. Cells were washed and lysed by addition of 50 μl of water. After 10 min at room temperature, 200 μl of Micrsoscint 40 (Perkin Elmer) were added. The radioactivity was counted in a Topcount microplate scintillation counter (Perkin Elmer). The non-specific uptake was determined in sodium-free assay buffer (266 mM sucrose, 2 mM KCl, 1 mM CaCl2, 1 mM MgCl2, 10 mM HEPES, 5 mM Tris, adjusted to pH 7.4 using 1 M KOH).

SGLT2 = biological target: T2, SGLT2 (Homo sapiens, UniProt P31639); experiment: 14C-AMG uptake in BHK cells transfected with SGLT2 (96-well cell-based assay); settings: 2 mM AMG, 37° C., 90 min
T2 construct: expressed in transfected cells
T2 sequence (P31639 1-672): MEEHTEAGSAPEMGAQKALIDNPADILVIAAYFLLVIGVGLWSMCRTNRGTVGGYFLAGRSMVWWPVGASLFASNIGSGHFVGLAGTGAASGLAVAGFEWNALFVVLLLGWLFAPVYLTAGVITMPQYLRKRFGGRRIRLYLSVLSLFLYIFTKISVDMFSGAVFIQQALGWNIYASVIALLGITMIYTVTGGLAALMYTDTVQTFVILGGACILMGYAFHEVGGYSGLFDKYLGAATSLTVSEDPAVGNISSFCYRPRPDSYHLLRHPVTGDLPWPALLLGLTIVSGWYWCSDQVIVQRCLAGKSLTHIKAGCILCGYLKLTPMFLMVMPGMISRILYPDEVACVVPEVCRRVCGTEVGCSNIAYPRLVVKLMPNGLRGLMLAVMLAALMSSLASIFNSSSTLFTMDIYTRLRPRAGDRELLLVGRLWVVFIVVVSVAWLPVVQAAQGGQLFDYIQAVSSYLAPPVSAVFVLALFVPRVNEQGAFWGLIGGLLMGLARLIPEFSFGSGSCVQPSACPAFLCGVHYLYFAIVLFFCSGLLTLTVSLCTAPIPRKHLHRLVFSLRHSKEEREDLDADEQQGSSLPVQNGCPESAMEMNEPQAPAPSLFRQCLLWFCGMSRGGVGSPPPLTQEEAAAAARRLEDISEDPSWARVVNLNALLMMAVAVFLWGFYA
Excerpt: as §1
To construct the SGLT2 expression vector (KL224), the SLC5A2 gene (homologous to NM_003041) was amplified from a cDNA library using standard PCR technology and cloned over NheI/XhoI sites into PCI-neo expression vector (Promega) containing neomycin as a selection marker. In this vector, transcription uses the enhancer/promoter of human cytomegalovirus and the SV40 polyadenylation signal.
as §2, with “KL224” for “KL225”
as §3, §4

Compound | IC50 (SGLT1) [nM] | IC50 (SGLT2) [nM]
CCNc1nnc(-c2ccccc2-c2nc3ncccn3c2Nc2c(Cl)cccc2Cl)o1 [Compound A15, (2,6-Dichlorophenyl)-{2-[2-(5-ethylamino-1,3,4-oxadiazol-2-yl)phenyl]imidazo-[1,2-a]pyrimidin-3-yl}amine] | 1000 to 10000 | 10 to 1000
CNc1nnc(-c2cc(OC)cc(OC)c2-c2nc3ncccn3c2Nc2c(Cl)cccc2Cl)o1 [Compound A3, (2,6-dichlorophenyl)-{2-[2,4-dimethoxy-6-(5-methylamino-1,3,4-oxadiazol-2-yl)phenyl]imidazo[1,2-a]pyrimidin-3-yl}amine] | 10 to 1000 | 10 to 1000
CCc1cc(OC)cc(OCC(N)=O)c1-c1nc2ncccn2c1Nc1c(C)cccc1C [Compound A9] | > 10000 | 10 to 1000
COc1cc(C)c(-c2nc3ncccn3c2Nc2c(C)cccc2C)c(OCC(N)=O)c1 [Compound A10, 2-{2-[3-(2,6-Dimethylphenylamino)-imidazo[1,2-a]pyrimidin-2-yl]-5-methoxy-3-methylphenoxy}acetamide] | > 10000 | 10 to 1000
CNc1nnc(-c2cc(OC)cc(OC)c2-c2nc3ncccn3c2Nc2c(C)cccc2C)o1 [Compound A11, {2-[2,4-Dimethoxy-6-(5-methylamino-1,3,4-oxadiazol-2-yl)phenyl]imidazo-[1,2-a]pyrimidin-3-yl}-(2,6-dimethyl-phenyl)amine] | 1000 to 10000 | 10 to 1000
Cc1cc(C)n2c(Nc3c(C)cccc3C)c(-c3ccccc3OCC(N)=O)nc2n1 [Compound A2] | > 10000 | > 10000
COc1cc(OC)c(-c2nc3ncccn3c2Nc2c(Cl)cccc2Cl)c(C(=O)NN)c1 [Compound A18, 2-[3-(2,6-dichlorophenylamino)imidazo[1,2-a]pyrimidin-2-yl]-3,5-dimethoxybenzohydrazide] | > 10000 | 1000 to 10000
CNc1nnc(-c2ccccc2-c2nc3ncccn3c2Nc2c(C)noc2C)o1 [Compound A25, (3,5-Dimethylisoxazol-4-yl)-{2-[2-(5-methylamino-1,3,4-oxadiazol-2-yl)-phenyl]imidazo[1,2-a]pyrimidin-3-yl}-amine] | > 10000 | > 10000

Other lines, results leading:

IC50 (SGLT1) [nM] | IC50 (SGLT2) [nM] | Compound
1000 to 10000 | 10 to 1000 | (2,6-Dichlorophenyl)-{2-[2-(5-methyl-amino-1,3,4-oxadiazol-2-yl)phenyl]-imidazo[1,2-a]pyrimidin-3-yl}amine [Compound A14]
> 10000 | 1000 to 10000 | Cc1cccc(C)c1Nc1c(-c2ccccc2OCC(N)=O)nc2ncccn12 [Compound A1, 2-{2-[3-(2,6-Dimethylphenylamino)-imidazo[1,2-a]pyrimidin-2-yl]phenoxy}-acetamide]
1000 to 10000 | 10 to 1000 | CCNc1nnc(-c2cc(OC)cc(OC)c2-c2nc3ncccn3c2Nc2c(Cl)cccc2Cl)o1 [Compound A5, (2,6-Dichlorophenyl)-{2-[2-(5-ethylamino-1,3,4-oxadiazol-2-yl)-4,6-dimethoxy-phenyl]imidazo[1,2-a]pyrimidin-3-yl}-amine]
1000 to 10000 | 10 to 1000 | CNc1nnc(-c2cccc(Cl)c2-c2nc3ncccn3c2Nc2c(C)cccc2C)o1 [Compound A19, {2-[2-Chloro-6-(5-methylamino-1,3,4-oxadiazol-2-yl)phenyl]imidazo[1,2-a]-pyrimidin-3-yl}-(2,6-dimethylphenyl)amine]
10 to 1000 | 10 to 1000 | CNc1nnc(-c2cc(OC)cc(OC)c2-c2nc3ncccn3c2Nc2c(Cl)cc(F)cc2Cl)o1 [Compound A4, (2,6-Dichloro-4-fluorophenyl)-{2-[2,4-dimethoxy-6-(5-methylamino-1,3,4-oxadiazol-2-yl)phenyl]imidazo[1,2-a]-pyrimidin-3-yl}amine]
> 10000 | 1000 to 10000 | COc1cc(OC)c(-c2nc3ncccn3c2Nc2c(Cl)cccc2Cl)c(-c2n[nH]c(=O)o2)c1 [Compound A6, 5-{2-[3-(2,6-dichlorophenylamino)imidazo[1,2-a]-pyrimidin-2-yl]-3,5-dimethoxyphenyl}-3H-1,3,4-oxadiazol-2-one]
> 10000 | 1000 to 10000 | COc1cc(C(N)=O)c(-c2nc3ncccn3c2Nc2c(Cl)cccc2Cl)c(OC)c1OC [Compound A17, 2-[3-(2,6-dichlorophenylamino)imidazo[1,2-a]pyrimidin-2-yl]-3,5,4-trimethoxybenzamide]
> 10000 | 10 to 1000 | CCc1cc(OC)cc(OCC(N)=O)c1-c1nc2ncccn2c1Nc1c(Cl)cccc1Cl [Compound A12, 2-{2-[3-(2,6-Dichlorophenylamino)-imidazo[1,2-a]pyrimidin-2-yl]-3-ethyl-5-methoxyphenoxy}acetamide]
1000 to 10000 | 10 to 1000 | CNc1nnc(-c2ccccc2-c2nc3ncccn3c2Nc2c(Cl)cc(F)cc2Cl)o1 [Compound A13, (2,6-Dichloro-4-fluorophenyl)-{2-[2-(5-methylamino-1,3,4-oxadiazol-2-yl)-phenyl]imidazo[1,2-a]pyrimidin-3-yl}-amine]
10 to 1000 | 10 to 1000 | CNc1nnc(-c2cccc(Cl)c2-c2nc3ncccn3c2Nc2c(C)cccc2Cl)o1 [Compound A22, {2-[2-Chloro-6-(5-methylamino-1,3,4-oxadiazol-2-yl)phenyl]imidazo[1,2-a]-pyrimidin-3-yl}-(2-chloro-6-methylphenyl)-amine]
